Patent US20230113037A1 (Bayer Aktiengesellschaft, priority 2019, published 2023)
Where two headings read alike, the source gives them in different places.

How the values were obtained:
AHR [1] = molecular target: T1, AHR (Mus musculus, UniProt P30561); assay: In vitro assay 3: antagonism in mouse cell line (AHR transactivation, firefly luciferase reporter, kynurenic acid prestimulated); type: cell-based
T1 sequence (P30561 1-848 P471L/N533S/M589L): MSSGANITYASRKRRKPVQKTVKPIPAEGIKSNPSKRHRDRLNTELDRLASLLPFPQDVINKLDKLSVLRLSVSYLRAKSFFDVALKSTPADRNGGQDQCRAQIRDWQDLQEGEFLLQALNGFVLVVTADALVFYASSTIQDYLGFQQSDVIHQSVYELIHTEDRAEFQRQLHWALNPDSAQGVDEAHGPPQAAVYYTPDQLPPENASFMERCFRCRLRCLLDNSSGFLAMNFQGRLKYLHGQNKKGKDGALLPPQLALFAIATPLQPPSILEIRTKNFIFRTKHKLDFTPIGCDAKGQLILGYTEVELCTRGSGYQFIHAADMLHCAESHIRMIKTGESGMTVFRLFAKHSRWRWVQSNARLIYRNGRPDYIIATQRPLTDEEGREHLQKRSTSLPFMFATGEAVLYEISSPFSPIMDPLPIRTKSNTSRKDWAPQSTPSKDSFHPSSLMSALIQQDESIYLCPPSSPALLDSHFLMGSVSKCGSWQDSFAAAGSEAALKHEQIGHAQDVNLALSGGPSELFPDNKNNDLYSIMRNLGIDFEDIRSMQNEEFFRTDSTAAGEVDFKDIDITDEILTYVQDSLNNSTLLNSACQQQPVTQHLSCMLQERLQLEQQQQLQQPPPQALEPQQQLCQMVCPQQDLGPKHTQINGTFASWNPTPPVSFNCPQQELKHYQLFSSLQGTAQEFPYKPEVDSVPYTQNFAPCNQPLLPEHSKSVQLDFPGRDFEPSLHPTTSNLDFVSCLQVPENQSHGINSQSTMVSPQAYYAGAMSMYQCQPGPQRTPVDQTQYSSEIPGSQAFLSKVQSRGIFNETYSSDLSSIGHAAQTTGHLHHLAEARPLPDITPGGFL
Summary of the method: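 Mouse cells stably carrying a DRE-driven AHR-inducible firefly luciferase reporter were prestimulated with the endogenous agonist kynurenic acid before compound addition. Luciferase read by SteadyGlo; cells without kynurenic acid served as full-inhibition control, with normalization to positive and negative controls. Repeat tests reported as mean or median.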

AHR [2] = molecular target: T2, AHR (Homo sapiens, UniProt P35869); assay: In vitro assay 1: antagonism in human cell line (AHR transactivation, firefly luciferase reporter, kynurenic acid prestimulated); type: cell-based; details: AHR Antagonism Human IC50 [M]
T2 construct: U87 MG glioblastoma cells (ATCC #HTB-14) endogenously expressing AHR; endogenous in cells; host or cells: U87 MG glioblastoma cells (ATCC #HTB-14)
T2 sequence (P35869 11-848): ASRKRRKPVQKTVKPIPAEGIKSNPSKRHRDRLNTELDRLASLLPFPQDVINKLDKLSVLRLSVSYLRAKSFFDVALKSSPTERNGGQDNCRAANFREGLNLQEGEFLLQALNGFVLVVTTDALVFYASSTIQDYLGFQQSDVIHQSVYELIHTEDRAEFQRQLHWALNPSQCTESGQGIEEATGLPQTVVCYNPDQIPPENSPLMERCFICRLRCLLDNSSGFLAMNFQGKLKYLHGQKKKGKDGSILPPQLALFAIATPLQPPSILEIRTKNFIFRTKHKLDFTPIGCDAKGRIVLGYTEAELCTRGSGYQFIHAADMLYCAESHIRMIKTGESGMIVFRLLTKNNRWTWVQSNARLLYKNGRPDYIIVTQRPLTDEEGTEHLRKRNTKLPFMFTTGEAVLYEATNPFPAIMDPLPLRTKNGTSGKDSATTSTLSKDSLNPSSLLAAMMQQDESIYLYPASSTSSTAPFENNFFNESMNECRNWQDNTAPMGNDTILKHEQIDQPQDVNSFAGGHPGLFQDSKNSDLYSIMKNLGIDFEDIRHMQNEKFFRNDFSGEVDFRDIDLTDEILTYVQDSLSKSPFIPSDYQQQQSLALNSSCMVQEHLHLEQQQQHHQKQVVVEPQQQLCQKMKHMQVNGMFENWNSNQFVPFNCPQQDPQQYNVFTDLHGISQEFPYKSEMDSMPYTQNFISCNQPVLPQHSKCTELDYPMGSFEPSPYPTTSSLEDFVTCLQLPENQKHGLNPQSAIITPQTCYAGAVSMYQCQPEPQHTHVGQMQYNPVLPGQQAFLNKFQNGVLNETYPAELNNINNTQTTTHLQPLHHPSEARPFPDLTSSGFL
Summary of the method: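 U87 MG glioblastoma cells with endogenous AHR, stably carrying a DRE-driven firefly luciferase reporter and constitutive Renilla reporter, prestimulated with kynurenic acid before compound addition. Firefly and Renilla read by dual luciferase; Renilla flags toxicity; normalized to controls (150 μM kynurenic acid + 5 μM staurosporine as full inhibition); repeat values averaged or median.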

[3] = mouse Hepa 1c1c7 cells, 200 μM kynurenic acid, 20 hours, read-out: AHR Antagonism Mouse IC50
[4] = Hepa 1c1c7 cells, 200 μM kynurenic acid, 20 hours, firefly luciferase reporter, read-out: AHR Antagonism Mouse IC50
[5] = read-out: AHR Antagonism Mouse IC50, mouse Hepa 1c1c7 cells, 200 μM kynurenic acid, 20 hours

Compound	IC50 (AHR [1]; [3])	IC50 (AHR [2])	IC50 (AHR [1]; [4])	IC50 (AHR [2]; firefly luciferase reporter)	IC50 (AHR [1]; [5])
COc1ccc(-c2nc3c4ccccc4nc(N[C@@H]4CCCCNC4=O)n3n2)cc1F [Example 635, (3R)-3-{[2-(3-fluoro-4-methoxyphenyl)[1,2,4]triazolo[1,5-c]quinazolin-5-yl]amino}azepan-2-one]	1.1 nM	9.49e-10 M	–	–	–
Cn1cc(-c2nc3c4c(F)cccc4nc(N[C@@H]4CCCCNC4=O)n3n2)cn1 [Example 244, (3R)-3-{[10-fluoro-2-(1-methyl-1H-pyrazol-4-yl)[1,2,4]triazolo[1,5-c]quinazolin-5-yl]amino}azepan-2-one]	66.7 nM	2.17e-08 M	–	–	–
COc1ccc(-c2nc3c4cc(OC)ccc4nc(N[C@@H]4CCCCNC4=O)n3n2)cc1 [Example 237, (3R)-3-{[9-methoxy-2-(4-methoxyphenyl)[1,2,4]triazolo[1,5-c]quinazolin-5-yl]amino}azepan-2-one]	38.7 nM	1.33e-08 M	–	–	–
Cc1ncc(-c2nc3c4ccccc4nc(N[C@@H]4CCCCNC4=O)n3n2)cc1F [Example 641, (3R)-3-{[2-(5-fluoro-6-methylpyridin-3-yl)[1,2,4]triazolo[1,5-c]quinazolin-5-yl]amino}azepan-2-one]	2.46 nM	6.85e-09 M	–	–	–
COc1ccc(-c2nc3c4cccc(Br)c4nc(N[C@H]4CCCCNC4=O)n3n2)c(C(F)(F)F)c1 [Example 570, (3S)-3-({7-bromo-2-[4-methoxy-2-(trifluoromethyl)phenyl][1,2,4]triazolo[1,5-c]quinazolin-5-yl}amino)azepan-2-one]	80.7 nM	8.08e-07 M	–	–	–
Cc1nn(C)c(C)c1-c1nc2c3cccc(C(F)(F)F)c3nc(N[C@@H]3CCCCNC3=O)n2n1 [Example 750, (3R)-3-{[7-(trifluoromethyl)-2-(1,3,5-trimethyl-1H-pyrazol-4-yl)[1,2,4]triazolo[1,5-c]quinazolin-5-yl]amino}azepan-2-one]	1.41 nM	3.56e-09 M	–	–	–
O=C1NCCCC[C@H]1Nc1nc2ccccc2c2nc(-c3ccccc3Br)nn12 [Example 452, (3R)-3-{[2-(2-bromophenyl)[1,2,4]triazolo[1,5-c]quinazolin-5-yl]amino}azepan-2-one]	3.35 nM	3.98e-09 M	–	–	–
COc1ccc(-c2nc3c4cccc(S(C)(=N)=O)c4nc(N[C@@H]4CCCCNC4=O)n3n2)cc1 (mixture of isomers) [Example 853, (3R)-3-{[7-(S-methanesulfonimidoyl)-2-(4-methoxyphenyl)[1,2,4]triazolo[1,5-c]quinazolin-5-yl]amino}azepan-2-one]	–	–	68.6 nM	2.04e-09 M	–
CC(C)(C)n1nccc1-c1nc2c3ccccc3nc(N[C@@H]3CCCCNC3=O)n2n1 [Example 608, (3R)-3-{[2-(1-tert-butyl-1H-pyrazol-5-yl)[1,2,4]triazolo[1,5-c]quinazolin-5-yl]amino}azepan-2-one]	25.5 nM	1.12e-07 M	–	–	–
COc1cccc(-c2nc3c4c(C)cccc4nc(NC4CCNC4=O)n3n2)c1 (single isomer, unassigned) [Example 191, 3-{[2-(3-methoxyphenyl)-10-methyl[1,2,4]triazolo[1,5-c]quinazolin-5-yl]amino}pyrrolidin-2-one]	–	1.96e-07 M	–	–	1090 nM
CC[C@@H](Nc1nc2c(Br)cccc2c2nc(-c3ccc(Cl)cc3OC(F)F)nn12)C(N)=O [Example 577, (2R)-2-({7-bromo-2-[4-chloro-2-(difluoromethoxy)phenyl][1,2,4]triazolo[1,5-c]quinazolin-5-yl}amino)butanamide]	–	6.6e-10 M	–	–	0.281 nM
O=C1NCCNC[C@H]1Nc1nc2c(Br)cccc2c2nc(-c3cccc(F)c3)nn12 [Example 268, (6R)-6-{[7-bromo-2-(3-fluorophenyl)[1,2,4]triazolo[1,5-c]quinazolin-5-yl]amino}-1,4-diazepan-5-one]	3.07 nM	6.36e-09 M	–	–	–
CCCNC(=O)[C@@H](CC)Nc1nc2c(Br)cccc2c2nc(-c3ccc(Cl)cc3OC(F)(F)F)nn12 [Example 812, (2R)-2-({7-bromo-2-[4-chloro-2-(trifluoromethoxy)phenyl][1,2,4]triazolo[1,5-c]quinazolin-5-yl}amino)-N-propylbutanamide]	–	–	2.47 nM	3.57e-09 M	–
O=C1NCCNCC1Nc1nc2cccc(C3CC3)c2c2nc(-c3cccc(F)c3)nn12 (stereo not drawn) [Example 295, 6-{[10-cyclopropyl-2-(3-fluorophenyl)[1,2,4]triazolo[1,5-c]quinazolin-5-yl]amino}-1,4-diazepan-5-one]	2910 nM	> 2e-05 M	–	–	–
Cn1cc(-c2nc3c4c(C(F)(F)F)cccc4nc(N[C@@H]4CNCCNC4=O)n3n2)cn1 [Example 286, (6R)-6-{[2-(1-methyl-1H-pyrazol-4-yl)-10-(trifluoromethyl)[1,2,4]triazolo[1,5-c]quinazolin-5-yl]amino}-1,4-diazepan-5-one]	3350 nM	2.78e-06 M	–	–	–
COc1ccccc1-c1nc2c3ccccc3nc(N[C@H]3CCCCNC3=O)n2n1 [Example 60, (3S)-3-{[2-(2-methoxyphenyl)[1,2,4]triazolo[1,5-c]quinazolin-5-yl]amino}azepan-2-one]	131 nM	> 2e-05 M	–	–	–
O=C1NCCNC[C@H]1Nc1nc2c(Cl)cccc2c2nc(-c3cccc(F)c3)nn12 [Example 419, (6R)-6-{[7-chloro-2-(3-fluorophenyl)[1,2,4]triazolo[1,5-c]quinazolin-5-yl]amino}-1,4-diazepan-5-one]	3.46 nM	3.49e-09 M	–	–	–
O=C1NCCCC1Nc1nc2ccccc2c2nc(-c3cccc(F)c3)nn12 (stereo not drawn) [Example 8, 3-{[2-(3-fluorophenyl)[1,2,4]triazolo[1,5-c]quinazolin-5-yl]amino}piperidin-2-one]	105 nM	5.44e-08 M	–	–	–
CC(C)S(=O)(=O)c1cccc2c1nc(N[C@@H]1CNCCNC1=O)n1nc(-c3cnn(C)c3)nc21 [Example 943, (6R)-6-{[2-(1-methyl-1H-pyrazol-4-yl)-7-(propane-2-sulfonyl)[1,2,4]triazolo[1,5-c]quinazolin-5-yl]amino}-1,4-diazepan-5-one]	–	–	2790 nM	9.47e-07 M	–
COc1ccc(-c2nc3c4cccc(OC5CC5)c4nc(N[C@@H]4CCCCNC4=O)n3n2)cc1 [Example 999, (3R)-3-{[7-(cyclopropyloxy)-2-(4-methoxyphenyl)[1,2,4]triazolo[1,5-c]quinazolin-5-yl]amino}azepan-2-one]	–	–	4.27 nM	6.91e-09 M	–
CS(=O)(=O)c1ccc(-c2nc3c4cccc(Br)c4nc(N[C@@H]4CNCCNC4=O)n3n2)cc1 [Example 715, (6R)-6-({7-bromo-2-[4-(methanesulfonyl)phenyl][1,2,4]triazolo[1,5-c]quinazolin-5-yl}amino)-1,4-diazepan-5-one]	14.8 nM	1.13e-08 M	–	–	–
